{
  "source": "patent US20030158250A1",
  "about": "“Agents correcting gene expression regulatory error” (priority 2000, published 2003)",
  "format_in_all_cases": "cell-based",
  "key": {"COX2 mRNA": {"system": "COX2 mRNA", "experiment": "RT-PCR of COX2 mRNA in monocytes", "settings": "human monocytes; for amplification of band ascribed to COX2 mRNA, stimulant alone: LPS or TPA alone, 4 hours, RT-PCR", "procedure": "(§1) Four-hundred milliliters of blood was collected from a human normal individual donor. The collected blood was diluted 2-folds with PBS(−), overlaid on Ficoll-paque (manufactured by Pharmacia), and centrifuged at 500×g for 20 minutes. The peripheral blood mononuclear cells (PBMCs) in the intermediate layer was collected with a pipette, and washed with RPMI 1640 medium (manufactured by Bio Whittaker). The collected PBMCs was suspended in a storage solution of 90% FCS (manufactured by JRH Biosciences)/10% dimethyl sulfoxide, and stored in liquid nitrogen. During the experiment, these stored PBMCs were rapidly melted in water bath at 37° C., and washed with RPMI 1640 medium containing 10 μg/ml Dnase (manufactured by Calbiochem). Thereafter, the number of living cells was calculated by trypan blue staining method, and subjected to each experiment.\n(§2) PBMCs were suspended in RPMI 1640 medium containing 5% human serum of blood type-AB, 0.1 mM nonessential amino acid, 1 mM sodium pyruvate, 2 mM L-glutamine (hereinabove manufactured by Bio Whittaker), 10 mM HEPES (manufactured by nakalai tesque), and 1% streptomycin-penicillin (manufactured by Gibco BRL) (hereinafter simply referred to as “5HRPMI medium”) so as to have a concentration of 4×10^6 cells/ml. Thereafter, the suspension was spread on a 6-well cell culture plate (manufactured by Falcon) in a volume of 3 ml/well, and the cells were incubated in a wet-type incubator at 37° C. and 5% CO2 for 1.5 hours. After 1.5 hours, the non-adherent cells were removed by suction, and each well was washed with RPMI 1640 medium, and 2 ml of the 5HRPMI medium was added to the wells, to give monocytes.\nTo the monocytes obtained above was added in each well 8 μl of an aqueous DGE solution, or 8 μl of water as a control, and the cells were incubated in a wet-type incubator at 37° C. and 5% CO2 for 5 hours. Thereafter, with addition of 2 μl of a 1 μg/ml aqueous LPS solution or 2 μl of a 25 μM TPA dimethyl sulfoxide solution to each well, or with addition of neither of these substances thereto, the cells were cultured for additional 4 hours. Thereafter, RNA was prepared from each cell in accordance with the description of the kit using RNeasy Mini Kit (manufactured by QIAGEN, 74104). The group with addition of water alone or the aqueous DGE solution alone to the cells was set as a negative control, and the group with addition of water and the aqueous LPS solution or the aqueous TPA solution to the cells was set as a positive control. […]"}, "[1]": {"system": "macrophage-derived chemokine (MDC)", "experiment": "RT-PCR expression level of MDC gene in monocytes", "settings": "human monocytes, 30 PCR cycles", "procedure": "as §1, §2\n(§3) To the monocytes obtained above was added in each well 8 μl of an aqueous DGE solution, or 8 μl of water as a control, and the cells were incubated in a wet-type incubator at 37° C. and 5% CO2 for 5 hours. Thereafter, with addition of 2 μl of a 1 μg/ml aqueous LPS solution or 2 μl of a 25 μM TPA dimethyl sulfoxide solution to each well, or with addition of neither of these substances thereto, the cells were cultured for additional 4 hours. Thereafter, RNA was prepared from each cell in accordance with the description of the kit using RNeasy Mini Kit (manufactured by QIAGEN, 74104). The group with addition of water alone or the aqueous DGE solution alone to the cells was set as a negative control, and the group with addition of water and the aqueous LPS solution or the aqueous TPA solution to the cells was set as a positive control.\n(§4) A liquid mixture having a total volume of 60 μl of 0.5 μg of RNA prepared above, 10 mM Tris-HCl (pH 8.3), 50 mM KCl, 5 mM MgCl2, 1 mM dNTP mixtures, 150 pmol of Random 6 mers, 60 U Ribonuclease Inhibitor (manufactured by Takara Shuzo Co., Ltd., 2310A), and 15 U Reverse Transcriptase XL (AMV) (manufactured by Takara Shuzo Co., Ltd., 2620A) were incubated at 30° C. for 10 minutes and thereafter at 42° C. for 1 hour using a thermal cycler (GeneAmp PCR System 9600, manufactured by Applied Biosystems), and the mixture was heated at 99° C. for 5 minutes to deactivate the enzyme, to give cDNA.\n(§5) Oligonucleotide primers for reaction of PCR were designed based on mRNA nucleotide sequence of each gene listed in the following tables, and synthesized in the same manner as above. In Tables 4 and 5, each gene evaluated in this Example, GenBank Accession NO, the name of oligonucleotide primers and SEQ ID NOs of the primers in Sequence Listing were listed. […]"}, "[2]": {"system": "macrophage inflammatory protein-2-α (MIP2α)", "experiment": "RT-PCR expression level of MIP2α gene in monocytes", "settings": "human monocytes, 35 PCR cycles", "procedure": "as §1, §2, §3, §4, §5"}, "[3]": {"system": "growth regulated protein-1 (Gro1)", "experiment": "RT-PCR expression level of Gro1 gene in monocytes", "settings": "human monocytes, 30 PCR cycles", "procedure": "as §1, §2, §3, §4, §5"}, "[4]": {"system": "SCO (cytochrome oxidase deficient, yeast) homolog-2 (SCO2)", "experiment": "RT-PCR expression level of SCO2 gene in monocytes", "settings": "human monocytes, 30 PCR cycles", "procedure": "as §1, §2, §3, §4, §5"}, "[5]": {"system": "adenosine A2a receptor (ADORA2A)", "experiment": "RT-PCR expression level of ADORA2A gene in monocytes", "settings": "human monocytes, 35 PCR cycles", "procedure": "as §1, §2, §3, §4, §5"}, "[6]": {"system": "properdin P factor, complement (PFC)", "experiment": "RT-PCR expression level of PFC gene in monocytes", "settings": "human monocytes, 35 PCR cycles", "procedure": "as §1, §2, §3, §4, §5"}, "[7]": {"system": "regulator of G-protein signaling-2 (RGS2)", "experiment": "RT-PCR expression level of RGS2 gene in monocytes", "settings": "human monocytes, 35 PCR cycles", "procedure": "as §1, §2, §3, §4, §5"}, "[8]": {"system": "myeloid leukemia cell differentiation protein-1 (MCL1)", "experiment": "RT-PCR expression level of MCL1 gene in monocytes", "settings": "human monocytes, 30 PCR cycles", "procedure": "as §1, §2, §3, §4, §5"}, "[9]": {"settings": "L + D: DGE and LPS, LPS alone +"}, "[10]": {"settings": "substance added alone, Con. (water) −"}, "[11]": {"settings": "T + D: DGE and TPA, TPA alone +"}, "[12]": {"settings": "substance added alone, Con. (water) +/−"}, "[13]": {"settings": "L + D: DGE and LPS, LPS alone +++"}, "[14]": {"settings": "substance added alone, Con. (water) +"}, "[15]": {"settings": "L + D: DGE and LPS, LPS alone −"}},
  "data": [
    {"molecule": "O=C1C=CC(CO)OC1O", "note": "[DGE, L-glycero-1,5-epoxy-1αβ,6-dihydroxy-cis-hex-3-en-2-one]", "values": [
      {"measurement": "induction of COX2 mRNA by LPS, effect of DGE", "setting": "COX2 mRNA; DGE 5 hours, then LPS 4 hours, RT-PCR band", "result": "inhibited"},
      {"measurement": "induction of COX2 mRNA by TPA, effect of DGE", "setting": "COX2 mRNA; DGE 5 hours, then TPA 4 hours, RT-PCR band", "result": "inhibited"},
      {"measurement": "expression level of MDC gene", "setting": "[1]; [9]", "result": "−"},
      {"measurement": "expression level of MDC gene", "setting": "[1]; T + D: DGE and TPA, TPA alone −", "result": "−"},
      {"measurement": "expression level of MDC gene", "setting": "[1]; [10]", "result": "−"},
      {"measurement": "expression level of MIP2α gene", "setting": "[2]; [9]", "result": "+/−"},
      {"measurement": "expression level of MIP2α gene", "setting": "[2]; [11]", "result": "+/−"},
      {"measurement": "expression level of MIP2α gene", "setting": "[2]; [12]", "result": "+/−"},
      {"measurement": "expression level of Gro1 gene", "setting": "[3]; [13]", "result": "+"},
      {"measurement": "expression level of Gro1 gene", "setting": "[3]; T + D: DGE and TPA, TPA alone ++", "result": "+"},
      {"measurement": "expression level of Gro1 gene", "setting": "[3]; [14]", "result": "+"},
      {"measurement": "expression level of SCO2 gene", "setting": "[4]; [15]", "result": "+"},
      {"measurement": "expression level of SCO2 gene", "setting": "[4]; [11]", "result": "+"},
      {"measurement": "expression level of SCO2 gene", "setting": "[4]; [14]", "result": "+"},
      {"measurement": "expression level of ADORA2A gene", "setting": "[5]; [13]", "result": "−"},
      {"measurement": "expression level of ADORA2A gene", "setting": "[5]; [11]", "result": "−"},
      {"measurement": "expression level of ADORA2A gene", "setting": "[5]; [14]", "result": "+/−"},
      {"measurement": "expression level of PFC gene", "setting": "[6]; [15]", "result": "+"},
      {"measurement": "expression level of PFC gene", "setting": "[6]; [11]", "result": "+"},
      {"measurement": "expression level of PFC gene", "setting": "[6]; [14]", "result": "+"},
      {"measurement": "expression level of RGS2 gene", "setting": "[7]; [15]", "result": "+/−"},
      {"measurement": "expression level of RGS2 gene", "setting": "[7]; T + D: DGE and TPA, TPA alone +/−", "result": "+/−"},
      {"measurement": "expression level of RGS2 gene", "setting": "[7]; [12]", "result": "+/−"},
      {"measurement": "expression level of MCL1 gene", "setting": "[8]; L + D: DGE and LPS, LPS alone +/−", "result": "+"},
      {"measurement": "expression level of MCL1 gene", "setting": "[8]; [11]", "result": "+"},
      {"measurement": "expression level of MCL1 gene", "setting": "[8]; [14]", "result": "+"}
    ]},
    {"molecule": "12-o-tetradecanoylphorbol 13-acetate [TPA, reference compound]", "values": [
      {"measurement": "amplification of band ascribed to COX2 mRNA, stimulant alone", "setting": "COX2 mRNA", "result": "induction"},
      {"measurement": "expression level of MDC gene", "setting": "[1]; [10]", "result": "−"},
      {"measurement": "expression level of MIP2α gene", "setting": "[2]; [12]", "result": "+"},
      {"measurement": "expression level of Gro1 gene", "setting": "[3]; [14]", "result": "++"},
      {"measurement": "expression level of SCO2 gene", "setting": "[4]; [14]", "result": "+"},
      {"measurement": "expression level of ADORA2A gene", "setting": "[5]; [14]", "result": "+"},
      {"measurement": "expression level of PFC gene", "setting": "[6]; [14]", "result": "+"},
      {"measurement": "expression level of RGS2 gene", "setting": "[7]; [12]", "result": "+/−"},
      {"measurement": "expression level of MCL1 gene", "setting": "[8]; [14]", "result": "+"}
    ]},
    {"molecule": "lipopolysaccharide [LPS, reference compound]", "values": [
      {"measurement": "amplification of band ascribed to COX2 mRNA, stimulant alone", "setting": "COX2 mRNA", "result": "induction"},
      {"measurement": "expression level of MDC gene", "setting": "[1]; [10]", "result": "+"},
      {"measurement": "expression level of MIP2α gene", "setting": "[2]; [12]", "result": "+"},
      {"measurement": "expression level of Gro1 gene", "setting": "[3]; [14]", "result": "+++"},
      {"measurement": "expression level of SCO2 gene", "setting": "[4]; [14]", "result": "−"},
      {"measurement": "expression level of ADORA2A gene", "setting": "[5]; [14]", "result": "+++"},
      {"measurement": "expression level of PFC gene", "setting": "[6]; [14]", "result": "−"},
      {"measurement": "expression level of RGS2 gene", "setting": "[7]; [12]", "result": "−"},
      {"measurement": "expression level of MCL1 gene", "setting": "[8]; [14]", "result": "+/−"}
    ]}
  ]
}
